Literature values in patent publication US20230270982A1, “DEVICES FOR REGIO-SPECIFIC RELEASE OF CARRIED DRUG AT ILEOCECAL REGION” (Teva Pharmaceutical Industries Ltd., priority 2020, published 2023).

What was measured:
[1] = oral ester prodrug; extensive intestinal esterase degradation
[2] = test system: inflammatory bowel disease in mice; conditions: given topically

Row | Molecule | bioavailability of the prodrug [1] | treating UC [2]
1 | CC(C)OC(=O)OCOP(=O)(CO[C@H](C)Cn1cnc2c(N)ncnc21)OCOC(=O)OC(C)C [Tenofovir disoproxil] | about 30% | –
2 | glatiramer acetate | – | effective
